This is an account of results in patent US20120220562A1, “Anti-Viral Compounds” (ABBOTT LABAORATORIES, priority 2011, published 2012).

One data set has as its system HCV 1b-Con1 replicon. The data set can be described thus: HCV 1b-Con1 replicon assay in the presence of 5% FBS. The format is cell-based. The note with it: Hepatitis C virus.
Data set [1] concerns HCV 2a, 2b, 3a and 4a replicons. The data set can be described thus: HCV 2a, 2b, 3a and 4a replicon assays in the absence of human plasma. The format is cell-based. On the procedure:
The inhibitory effects of the compounds of the invention on HCV replication can be determined by measuring activity of the luciferase reporter gene. For example, replicon-containing cells can be seeded into 96 well plates at a density of 5000 cells per well in 100 μl DMEM containing 5% FBS. The following day compounds can be diluted in dimethyl sulfoxide (DMSO) to generate a 200× stock in a series of eight half-log dilutions. The dilution series can then be further diluted 100-fold in the medium containing 5% FBS. Medium with the inhibitor is added to the overnight cell culture plates already containing 100 μl of DMEM with 5% FBS. In assays measuring inhibitory activity in the presence of human plasma, the medium from the overnight cell culture plates can be replaced with DMEM containing 40% human plasma and 5% FBS. […] Luciferin solution (100 μl, Promega) can be added to each well, and luciferase activity can be measured with a Victor II luminometer (Perkin-Elmer). The percent inhibition of HCV RNA replication can be calculated for each compound concentration and the EC50 value can be calculated using nonlinear regression curve fitting to the 4-parameter logistic equation and GraphPal Prism 4 software.

A short description of data set [2]: AUC value (pharmacokinetics). To be noted: in vivo.

On to `COC(=O)N[C@H](C(=O)N1CCC[C@H]1c1nc2cc([C@H]3CC[C@H](c4ccc5[nH]c([C@@H]6CCCN6C(=O)[C@@H](NC(=O)OC)C(C)C)nc5c4)N3c3cc(F)c(N4CCC(c5ccccc5)CC4)c(F)c3)ccc2[nH]1)C(C)C` [Example 5.1, methyl {(2S)-1-[(2S)-2-{5-[(2R,5R)-1-[3,5-difluoro-4-(4-phenylpiperidin-1-yl)phenyl]-5-{2-[(2S)-1-{(2S)-2-[(methoxycarbonyl)amino]-3-methylbutanoyl}pyrrolidin-2-yl]-1H-benzimidazol-5-yl}pyrrolidin-2-yl]-1H-benzimidazol-2-yl}pyrrolidin-1-yl]-3-methyl-1-oxobutan-2-yl}carbamate], for which the EC50 in the data set on HCV 1b-Con1 replicon is under 0.1 nM. Moreover, the “EC50 values, fold less than those of Example 4.25” value in data set [1] was “at least 50 fold”. In addition, the “AUC value, fold greater than that of Example 2.9” value in data set [2] is “about 30 fold”.
With `COC(=O)N[C@H](C(=O)N1CCC[C@H]1c1nc2cc([C@H]3CC[C@H](c4cc5[nH]c([C@@H]6CCCN6C(=O)[C@@H](NC(=O)OC)C(C)C)nc5cc4F)N3c3ccc(C(C)(C)C)cc3)c(F)cc2[nH]1)C(C)C` [Example 6.1, methyl {(2S)-1-[(2S)-2-{5-[(2R,5R)-1-(4-tert-butylphenyl)-5-{5-fluoro-2-[(2S)-1-{(2S)-2-[(methoxycarbonyl)amino]-3-methylbutanoyl}pyrrolidin-2-yl]-1H-benzimidazol-6-yl}pyrrolidin-2-yl]-6-fluoro-1H-benzimidazol-2-yl}pyrrolidin-1-yl]-3-methyl-1-oxobutan-2-yl}carbamate], the EC50 with HCV 1b-Con1 replicon was under 0.1 nM. Besides, the “AUC value, fold greater than that of Example 109 of the '301 application” value in data set [2] is on record as “about 9 fold”.
